# According to the supplement of paper PMC10307832:
# Tests used:
# Experiment in all cases: relative viability (nuclei count vs DMSO), 5 days (fraction); higher = more cells survive
# NCI-H460 = system: NCI-H460
# Method in brief: (§1)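 Medians of duplicate plates are given as relative viability. That measure is the nuclei count in treated wells divided by the count in vehicle wells. Counts were taken on 4× images of lung cancer cell lines in 1536-well plates, 5 days after pin-tool dosing the day after seeding with one drug alone or a fixed anchor-drug dose plus five library-drug doses (not always all listed) in √10 steps.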
# SK-LU-1 = system: SK-LU-1
# Method in brief: as §1
# COR-L 105 = system: COR-L 105
# Method in brief: as §1
# EMC-BAC-2 = system: EMC-BAC-2
# Method in brief: as §1
# HARA = system: HARA
# Method in brief: as §1
# NCI-H1437 = system: NCI-H1437
# Method in brief: as §1
# LCLC-103H = system: LCLC-103H
# Method in brief: as §1
# HOP-62 = system: HOP-62
# Method in brief: as §1
# HCC-366 = system: HCC-366
# Method in brief: as §1
# NCI-H2228 = system: NCI-H2228
# Method in brief: as §1
# NCI-H1915 = system: NCI-H1915
# Method in brief: as §1
# NCI-H727 = system: NCI-H727
# Method in brief: as §1
# HCC-827 = system: HCC-827
# Method in brief: as §1
# NCI-H1792 = system: NCI-H1792
# Method in brief: as §1
# A-427 = system: A-427
# Method in brief: as §1
# CAL-12T = system: CAL-12T
# Method in brief: as §1
# NCI-H1755 = system: NCI-H1755
# Method in brief: as §1
# SW 1573 = system: SW 1573
# Method in brief: as §1
# NCI-H2009 = system: NCI-H2009
# Method in brief: as §1
# NCI-H23 = system: NCI-H23
# Method in brief: as §1
compound,measurement,setting,value
Cc1sc2c(c1C)C(c1ccc(Cl)cc1)=N[C@@H](CC(=O)OC(C)(C)C)c1nnc(C)n1-2 [JQ1] + C[C@@H](Oc1cc(-c2cnn(C3CCNCC3)c2)cnc1N)c1c(Cl)ccc(F)c1Cl [Crizotinib] (partner 1 µM),relative viability,NCI-H460; first compound 0.04 µM,0.806
same,relative viability,NCI-H460; first compound 0.1265 µM,0.597
same,relative viability,NCI-H460; first compound 0.4 µM,0.532
same,relative viability,NCI-H460; first compound 1.265 µM,0.0339
same,relative viability,NCI-H460; first compound 4 µM,0.0299
same,relative viability,SK-LU-1; first compound 0.04 µM,0.96
same,relative viability,SK-LU-1; first compound 0.1265 µM,0.615
same,relative viability,SK-LU-1; first compound 0.4 µM,0.481
same,relative viability,SK-LU-1; first compound 1.265 µM,0.193
same,relative viability,SK-LU-1; first compound 4 µM,0.148
same,relative viability,COR-L 105; first compound 0.04 µM,0.705
same,relative viability,COR-L 105; first compound 0.1265 µM,0.25
same,relative viability,COR-L 105; first compound 0.4 µM,0.403
same,relative viability,COR-L 105; first compound 1.265 µM,0.245
same,relative viability,COR-L 105; first compound 4 µM,0.267
same,relative viability,EMC-BAC-2; first compound 0.04 µM,0.737
same,relative viability,EMC-BAC-2; first compound 0.1265 µM,0.651
same,relative viability,EMC-BAC-2; first compound 0.4 µM,0.504
same,relative viability,EMC-BAC-2; first compound 1.265 µM,0.43
same,relative viability,EMC-BAC-2; first compound 4 µM,0.315
same,relative viability,HARA; first compound 0.04 µM,0.945
same,relative viability,HARA; first compound 0.1265 µM,0.714
same,relative viability,HARA; first compound 0.4 µM,0.337
same,relative viability,HARA; first compound 1.265 µM,0.366
same,relative viability,HARA; first compound 4 µM,0.308
same,relative viability,NCI-H1437; first compound 0.04 µM,0.849
same,relative viability,NCI-H1437; first compound 0.1265 µM,0.896
same,relative viability,NCI-H1437; first compound 0.4 µM,0.666
same,relative viability,NCI-H1437; first compound 1.265 µM,0.29
same,relative viability,NCI-H1437; first compound 4 µM,0.248
same,relative viability,LCLC-103H; first compound 0.04 µM,1
same,relative viability,LCLC-103H; first compound 0.1265 µM,0.94
same,relative viability,LCLC-103H; first compound 0.4 µM,0.847
same,relative viability,LCLC-103H; first compound 1.265 µM,0.612
same,relative viability,LCLC-103H; first compound 4 µM,0.506
same,relative viability,HOP-62; first compound 0.04 µM,0.714
same,relative viability,HOP-62; first compound 0.1265 µM,0.711
same,relative viability,HOP-62; first compound 0.4 µM,0.299
same,relative viability,HOP-62; first compound 1.265 µM,0.119
same,relative viability,HOP-62; first compound 4 µM,0.11
same,relative viability,HCC-366; first compound 0.04 µM,0.457
same,relative viability,HCC-366; first compound 0.4 µM,0.41
same,relative viability,HCC-366; first compound 1.265 µM,0.243
same,relative viability,HCC-366; first compound 4 µM,0.103
same,relative viability,NCI-H2228; first compound 0.04 µM,0.455
same,relative viability,NCI-H2228; first compound 0.1265 µM,0.417
same,relative viability,NCI-H2228; first compound 0.4 µM,0.38
same,relative viability,NCI-H2228; first compound 1.265 µM,0.306
same,relative viability,NCI-H2228; first compound 4 µM,0.317
same,relative viability,NCI-H1915; first compound 0.04 µM,0.891
same,relative viability,NCI-H1915; first compound 0.1265 µM,0.829
same,relative viability,NCI-H1915; first compound 0.4 µM,0.735
same,relative viability,NCI-H1915; first compound 1.265 µM,0.462
same,relative viability,NCI-H1915; first compound 4 µM,0.233
same,relative viability,NCI-H727; first compound 0.04 µM,0.823
same,relative viability,NCI-H727; first compound 0.1265 µM,1.02
same,relative viability,NCI-H727; first compound 0.4 µM,0.631
same,relative viability,NCI-H727; first compound 1.265 µM,0.338
same,relative viability,NCI-H727; first compound 4 µM,0.362
same,relative viability,HCC-827; first compound 0.04 µM,1.01
same,relative viability,HCC-827; first compound 0.4 µM,0.663
same,relative viability,HCC-827; first compound 1.265 µM,0.672
same,relative viability,HCC-827; first compound 4 µM,0.668
same,relative viability,NCI-H1792; first compound 0.04 µM,0.968
same,relative viability,NCI-H1792; first compound 0.4 µM,0.948
same,relative viability,NCI-H1792; first compound 1.265 µM,0.768
same,relative viability,NCI-H1792; first compound 4 µM,0.644
same,relative viability,A-427; first compound 0.04 µM,0.997
same,relative viability,A-427; first compound 0.1265 µM,0.947
same,relative viability,A-427; first compound 0.4 µM,0.658
same,relative viability,A-427; first compound 1.265 µM,0.691
same,relative viability,A-427; first compound 4 µM,0.516
same,relative viability,CAL-12T; first compound 0.04 µM,0.528
same,relative viability,CAL-12T; first compound 0.1265 µM,0.316
same,relative viability,CAL-12T; first compound 0.4 µM,0.316
same,relative viability,CAL-12T; first compound 1.265 µM,0.133
same,relative viability,CAL-12T; first compound 4 µM,0.103
same,relative viability,NCI-H1755; first compound 0.04 µM,0.899
same,relative viability,NCI-H1755; first compound 0.1265 µM,0.854
same,relative viability,NCI-H1755; first compound 0.4 µM,0.901
same,relative viability,NCI-H1755; first compound 1.265 µM,0.67
same,relative viability,NCI-H1755; first compound 4 µM,0.608
same,relative viability,SW 1573; first compound 0.04 µM,0.633
same,relative viability,SW 1573; first compound 0.1265 µM,0.741
same,relative viability,SW 1573; first compound 0.4 µM,0.678
same,relative viability,SW 1573; first compound 1.265 µM,0.48
same,relative viability,SW 1573; first compound 4 µM,0.385
same,relative viability,NCI-H2009; first compound 0.04 µM,0.969
same,relative viability,NCI-H2009; first compound 0.1265 µM,0.627
same,relative viability,NCI-H2009; first compound 0.4 µM,0.572
same,relative viability,NCI-H2009; first compound 1.265 µM,0.301
same,relative viability,NCI-H2009; first compound 4 µM,0.211
same,relative viability,NCI-H23; first compound 0.04 µM,0.441
same,relative viability,NCI-H23; first compound 0.1265 µM,0.61
same,relative viability,NCI-H23; first compound 0.4 µM,0.304
same,relative viability,NCI-H23; first compound 1.265 µM,0.163
same,relative viability,NCI-H23; first compound 4 µM,0.154
